Tested on: strain NA45-3 (ATCC 209681)
Assay: Effect of magnesium on AA production from substrates by strain NA45-3
Type: cell-based, Prototheca moriformis
Conditions: 24 hours; for conversion to AA, effect of magnesium in the resuspension buffer: NA45-3 grown Mg-limited, substrate 20 g/L

Row | SMILES | conversion to AA, effect of magnesium in the resuspension buffer | AA accumulation by cells grown under magnesium-sufficient conditions (NA45-3, substrate 20 g/L, regardless of magnesium in resuspension broth)
1 | O=C[C@@H](O)[C@@H](O)[C@H](O)[C@H](O)CO [D-mannose] | unaffected | 
2 | O=C1O[C@H]([C@@H](O)CO)[C@@H](O)[C@@H]1O [L-galactono-γ-lactone] | unaffected | enhanced

— US20020012979A1, “VITAMIN C PRODUCTION IN MICROORGANISMS AND PLANTS” (priority 1998, published 2002)
